From patent US20250145596A1, “HETEROCYCLIC GLP-1 AGONISTS” (Gasherbrum Bio, Inc., priority 2022, published 2025)

target: T1, GLP-1 Receptor (Homo sapiens, UniProt P43220); experiment: GLP-1R agonist cAMP stimulation assay; assay type: cell-based; conditions: HEK293/CRE-Luc cell line stably expressing the GLP-1 Receptor; 30 min at 37° C.; cAMP dynamic 2 Kit
T1 construct: host or cells: HEK293/CRE-Luc
Procedure: Activation of GLP-1 receptor is known to stimulate cyclic AMP (cAMP) production in cells which indicates primary coupling to the Gas subunit of the G protein heterotrimeric complex.
To optimize functional activity directed toward Gas coupling, a HEK293/CRE-Luc cell line developed by HDB stably expressing the GLP-1 Receptor was used. 200× concentration of compound working solutions were prepared (Agilent Technologies Bravo) with ½ log serial dilution in 384-well Echo LDV plate (Labcyte, Cat #LP-0200). 50 nL/well 200× concentration of compound working solutions were moved to 384-well white low volume plate (Greiner, Cat #784075) using Labcyte ECHO550. 1×10^5 cells/mL HEK293/GLPlR/CRE-LUC (HD Biosciences) cell suspensions prepared with assay buffer [DPBS containing 0.5 mM IBMX (Sigma, Cat #15879) and 0.1% BSA (GENVIEW, Cat #FA016-100g)], 10 μL cell suspensions were added to each well of previous generated assay plate which already contains 50 nL compound at 200× concentration using ThermoFisher Multidrop Combi (1000 cells/well). Seal the plate and incubate at 37° C. with 5% CO2 for 30 min.
After incubation the cAMP assay signal was generated using cAMP dynamic 2 Kit (Cisbio). 5 μL cAMP-d2 working solution was added to each well, followed with 5 μL Anti-cAMP antibody-cryptate working solution added to each well using ThermoFisher Multidrop Combi. Incubate at room temperature for 1 hour protected from light. Read the fluorescence at 665 and 615 nm with Reader PerkinElmer EnVision.
% Activity=100%×(mean RLU of test sample mean RLU of vehicle control)/(mean RLU of MAX control−mean RLU of vehicle control))

T1 sequence (P43220 24-463): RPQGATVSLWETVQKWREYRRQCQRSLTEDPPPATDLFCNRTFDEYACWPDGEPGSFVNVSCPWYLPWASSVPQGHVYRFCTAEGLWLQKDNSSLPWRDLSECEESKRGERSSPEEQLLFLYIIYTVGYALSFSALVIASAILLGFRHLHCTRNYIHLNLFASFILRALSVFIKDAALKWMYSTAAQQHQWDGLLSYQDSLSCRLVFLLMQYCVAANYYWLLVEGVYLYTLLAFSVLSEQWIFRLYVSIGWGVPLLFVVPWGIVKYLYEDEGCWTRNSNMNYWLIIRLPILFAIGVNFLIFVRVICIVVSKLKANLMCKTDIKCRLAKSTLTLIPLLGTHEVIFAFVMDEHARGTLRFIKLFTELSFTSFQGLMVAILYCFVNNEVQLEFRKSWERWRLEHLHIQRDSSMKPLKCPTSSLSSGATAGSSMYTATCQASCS

Structure (SMILES) | EC50 [nM]
CC1(c2ccc(C(F)(F)F)cc2Cl)Oc2cccc(C3CCN(Cc4ncc(-c5nnc(C(F)(F)F)[nH]5)cc4CC4(C#N)CC4)CC3)c2O1 (centres unmarked) [Example 9, 1-((2-((4-(2-(2-Chloro-4-(trifluoromethyl)phenyl)-2-methylbenzo[d][1,3]dioxol-4-yl)piperidin-1-yl)methyl)-5-(5-(trifluoromethyl)-4H-1,2,4-triazol-3-yl)pyridin-3-yl)methyl)cyclopropane-1-carbonitrile] | < 1
CC1(c2ccc(Cl)c(F)c2)Oc2cccc(C3CCN(Cc4ncc(-c5nnc(C(F)(F)F)[nH]5)cc4CC4(C#N)CC4)CC3)c2O1 (centres unmarked) [Example 10, 1-{[2-({4-[2-(4-Chloro-3-fluorophenyl)-2-methyl-2H-1,3-benzodioxol-4-yl]piperidin-1-yl}methyl)-5-[5-(trifluoromethyl)-4H-1,2,4-triazol-3-yl]pyridin-3-yl]methyl}cyclopropane-1-carbonitrile] | < 1
Cc1ccc(C2(C)Oc3cccc(C4CCN(Cc5ncc(-c6nnc(C(F)(F)F)[nH]6)cc5CC5(C#N)CC5)CC4)c3O2)cn1 (centres unmarked) [Example 11, 1-{[2-({4-[2-Methyl-2-(6-methylpyridin-3-yl)-2H-1,3-benzodioxol-4-yl]piperidin-1-yl}methyl)-5-[5-(trifluoromethyl)-4H-1,2,4-triazol-3-yl]pyridin-3-yl]methyl}cyclopropane-1-carbonitrile] | < 1
CC1(c2ccc(Cl)cc2F)Oc2c(F)ccc(C3CCN(Cc4ncc(-c5nnc(C(F)(F)F)[nH]5)cc4CC4(C#N)CC4)CC3)c2O1 (centres unmarked) [Example 12, 1-{[2-({4-[2-(4-chloro-2-fluorophenyl)-7-fluoro-2-methyl-2H-1,3-benzodioxol-4-yl]piperidin-1-yl}methyl)-5-[5-(trifluoromethyl)-4H-1,2,4-triazol-3-yl]pyridin-3-yl]methyl}cyclopropane-1-carbonitrile] | < 1
CC1(c2ccc(Cl)cc2F)Oc2ccc(F)c(C3CCN(Cc4ncc(-c5nnc(C(F)(F)F)[nH]5)cc4CC4(C#N)CC4)CC3)c2O1 (centres unmarked) [Example 15, 1-{[2-({4-[2-(4-Chloro-2-fluorophenyl)-5-fluoro-2-methyl-2H-1,3-benzodioxol-4-yl]piperidin-1-yl}methyl)-5-[5-(trifluoromethyl)-4H-1,2,4-triazol-3-yl]pyridin-3-yl]methyl}cyclopropane-1-carbonitrile] | < 1
C[C@]1(c2ccc(Cl)cc2F)Oc2cccc(C3CCN(Cc4ncc(-c5nnc(C(F)F)[nH]5)cc4CC4(C#N)CC4)CC3)c2O1 [Example 17, 1-{[2-({4-[(2S)-2-(4-chloro-2-fluorophenyl)-2-methyl-2H-1,3-benzodioxol-4-yl]piperidin-1-yl}methyl)-5-[5-(difluoromethyl)-4H-1,2,4-triazol-3-yl]pyridin-3-yl]methyl}cyclopropane-1-carbonitrile] | < 1
C[C@]1(c2ccc(Cl)cc2F)Oc2cccc(C3CCN(Cc4ncc(-c5nnc(C#N)[nH]5)cc4CC4(C#N)CC4)CC3)c2O1 [Example 18, (S)-5-(6-((4-(2-(4-chloro-2-fluorophenyl)-2-methylbenzo[d][1,3]dioxol-4-yl)piperidin-1-yl)methyl)-5-((1-cyanocyclopropyl)methyl)pyridin-3-yl)-4H-1,2,4-triazole-3-carbonitrile] | < 1
C[C@]1(c2ccc(Cl)cc2F)Oc2cccc(C3CCN(Cc4ncc(C(=O)O)cc4CC4(C#N)CC4)CC3)c2O1 [Example 19, (S)-6-((4-(2-(4-chloro-2-fluorophenyl)-2-methylbenzo[d][1,3]dioxol-4-yl)piperidin-1-yl)methyl)-5-((1-cyanocyclopropyl)methyl)nicotinic acid] | 1 to 100

Next, values leading:

EC50 [nM] | Structure (SMILES)
< 1 | C[C@]1(c2ccc(Cl)cc2F)Oc2cccc(C3CCN(Cc4ncc(/C=C/C(=O)O)cc4CC4(C#N)CC4)CC3)c2O1 [Example 20, (S,E)-3-(6-((4-(2-(4-chloro-2-fluorophenyl)-2-methylbenzo[d][1,3]dioxol-4-yl)piperidin-1-yl)methyl)-5-((1-cyanocyclopropyl)methyl)pyridin-3-yl)acrylic acid]
1 to 100 | C[C@]1(c2ccc(Cl)cc2F)Oc2cccc(C3CCN(Cc4ncc(CCC(=O)O)cc4CC4(C#N)CC4)CC3)c2O1 [Example 21, (S)-3-(6-((4-(2-(4-chloro-2-fluorophenyl)-2-methylbenzo[d][1,3]dioxol-4-yl)piperidin-1-yl)methyl)-5-((1-cyanocyclopropyl)methyl)pyridin-3-yl)propanoic acid]
< 1 | CC1(c2ccc(Cl)cc2F)Oc2cccc(C3CCN(Cc4ncc(-c5nnc(C(F)(F)F)[nH]5)cc4CC4(C#N)CC4)CC3(F)F)c2O1 (centres unmarked) [Example 22, 1-{[2-({4-[2-(4-chloro-2-fluorophenyl)-2-methyl-2H-1,3-benzodioxol-4-yl]-3,3-difluoropiperidin-1-yl}methyl)-5-[5-(trifluoromethyl)-4H-1,2,4-triazol-3-yl]pyridin-3-yl]methyl}cyclopropane-1-carbonitrile]
< 1 | N#CC1(Cc2cc(-c3nnc(C(F)(F)F)[nH]3)cnc2CN2CCC(c3cccc(OCc4ccc(Cl)cc4F)n3)CC2)CC1 [Example 32, 1-({2-[(4-{6-[(4-chloro-2-fluorophenyl)methoxy]pyridin-2-yl}piperidin-1-yl)methyl]-5-[5-(trifluoromethyl)-4H-1,2,4-triazol-3-yl]pyridin-3-yl}methyl)cyclopropane-1-carbonitrile]
< 1 | N#CC1(Cc2cc(-c3nnc(C(F)(F)F)[nH]3)cnc2CN2CCC(c3ccc(F)c(OCc4ccc(Cl)cc4F)n3)CC2)CC1 [Example 33, 1-((2-((4-(6-((4-chloro-2-fluorobenzyl)oxy)-5-fluoropyridin-2-yl)piperidin-1-yl)methyl)-5-(5-(trifluoromethyl)-4H-1,2,4-triazol-3-yl)pyridin-3-yl)methyl)cyclopropane-1-carbonitrile]
< 1 | N#CC1(Cc2cc(-c3nnc(C(F)(F)F)[nH]3)cnc2CN2CCC(c3ccnc(OCc4ccc(Cl)cc4F)n3)CC2)CC1 [Example 34, 1-({2-[(4-{2-[(4-chloro-2-fluorophenyl)methoxy]pyrimidin-4-yl}piperidin-1-yl)methyl]-5-[5-(trifluoromethyl)-4H-1,2,4-triazol-3-yl]pyridin-3-yl}methyl)cyclopropane-1-carbonitrile]
1 to 100 | N#CC1(Cc2cc(-c3nnc(C(F)(F)F)[nH]3)cnc2CN2CCC(c3nc(OCc4ccc(Cl)cc4F)ncc3F)CC2)CC1 [Example 35, 1-({2-[(4-{2-[(4-chloro-2-fluorophenyl)methoxy]-5-fluoropyrimidin-4-yl}piperidin-1-yl)methyl]-5-[5-(trifluoromethyl)-4H-1,2,4-triazol-3-yl]pyridin-3-yl}methyl)cyclopropane-1-carbonitrile]
< 1 | N#CC1(Cc2cc(-c3nnc(C(F)(F)F)[nH]3)cnc2CN2CCC(c3ncc(F)c(OCc4ccc(Cl)cc4F)n3)CC2)CC1 [Example 36, 1-((2-((4-(4-((4-chloro-2-fluorobenzyl)oxy)-5-fluoropyrimidin-2-yl)piperidin-1-yl)methyl)-5-(5-(trifluoromethyl)-4H-1,2,4-triazol-3-yl)pyridin-3-yl)methyl)cyclopropane-1-carbonitrile]
< 1 | N#CC1(Cc2cc(-c3nnc(C(F)(F)F)[nH]3)cnc2CN2CCC(c3cccnc3OCc3ccc(Cl)cc3F)CC2)CC1 [Example 37, 1-({2-[(4-{2-[(4-chloro-2-fluorophenyl)methoxy]pyridin-3-yl}piperidin-1-yl)methyl]-5-[5-(trifluoromethyl)-4H-1,2,4-triazol-3-yl]pyridin-3-yl}methyl)cyclopropane-1-carbonitrile]
< 1 | N#CC1(Cc2cc(-c3nnc(C(F)(F)F)[nH]3)cnc2CN2CCC(c3cccc4c3OC(c3ccc(Cl)cc3F)CO4)CC2)CC1 (centres unmarked) [Example 38, 1-{[2-({4-[3-(4-chloro-2-fluorophenyl)-2,3-dihydro-1,4-benzodioxin-5-yl]piperidin-1-yl}methyl)-5-[5-(trifluoromethyl)-4H-1,2,4-triazol-3-yl]pyridin-3-yl]methyl}cyclopropane-1-carbonitrile]
1 to 100 | N#CC1(Cc2cc(-c3nnc(C(F)(F)F)[nH]3)cnc2CN2CCC(c3cccc4c3OC[C@@H](c3ccc(Cl)cc3)O4)CC2)CC1 [Example 39, 1-{[2-({4-[(2R)-2-(4-chlorophenyl)-2,3-dihydro-1,4-benzodioxin-5-yl]piperidin-1-yl}methyl)-5-[5-(trifluoromethyl)-4H-1,2,4-triazol-3-yl]pyridin-3-yl]methyl}cyclopropane-1-carbonitrile]
< 1 | N#CC1(Cc2cc(-c3nnc(C(F)(F)F)[nH]3)cnc2CN2CCN(c3ccc(F)c(OCc4ccc(Cl)cc4F)c3)CC2)CC1 [Example 41, 1-({2-[(4-{3-[(4-chloro-2-fluorophenyl)methoxy]-4-fluorophenyl}piperazin-1-yl)methyl]-5-[5-(trifluoromethyl)-4H-1,2,4-triazol-3-yl]pyridin-3-yl}methyl)cyclopropane-1-carbonitrile]
